{"source": "the kinase profiling compilation of Christmann-Franck et al. (2016)", "test_in_all_cases": "radiometric filter-binding kinase assay", "key": {"IRAK1 (human)": {"biological_target": "IRAK1 (human) (UniProt P51617)"}, "EIF2AK3 (human)": {"biological_target": "EIF2AK3 (human) (UniProt Q9NZJ5)"}, "STK33 (human)": {"biological_target": "STK33 (human) (UniProt Q9BYT3)"}, "CDK9 CCNT1 (human)": {"biological_target": "CDK9 CCNT1 (human) (UniProt P50750+O60563)"}, "MAP4K3 (human)": {"biological_target": "MAP4K3 (human) (UniProt Q8IVH8)"}, "TTBK2 (human)": {"biological_target": "TTBK2 (human) (UniProt Q6IQ55)"}, "TESK1 (human)": {"biological_target": "TESK1 (human) (UniProt Q15569)"}, "TEK (human)": {"biological_target": "TEK (human) (UniProt Q02763)"}, "MYLK (human)": {"biological_target": "MYLK (human) (UniProt Q15746)"}, "SIK2 (human)": {"biological_target": "SIK2 (human) (UniProt Q9H0K1)"}, "TSSK1B (human)": {"biological_target": "TSSK1B (human) (UniProt Q9BXA7)"}, "TLK1 (human)": {"biological_target": "TLK1 (human) (UniProt Q9UKI8)", "sequence (Q9UKI8 whole entry, looked up)": "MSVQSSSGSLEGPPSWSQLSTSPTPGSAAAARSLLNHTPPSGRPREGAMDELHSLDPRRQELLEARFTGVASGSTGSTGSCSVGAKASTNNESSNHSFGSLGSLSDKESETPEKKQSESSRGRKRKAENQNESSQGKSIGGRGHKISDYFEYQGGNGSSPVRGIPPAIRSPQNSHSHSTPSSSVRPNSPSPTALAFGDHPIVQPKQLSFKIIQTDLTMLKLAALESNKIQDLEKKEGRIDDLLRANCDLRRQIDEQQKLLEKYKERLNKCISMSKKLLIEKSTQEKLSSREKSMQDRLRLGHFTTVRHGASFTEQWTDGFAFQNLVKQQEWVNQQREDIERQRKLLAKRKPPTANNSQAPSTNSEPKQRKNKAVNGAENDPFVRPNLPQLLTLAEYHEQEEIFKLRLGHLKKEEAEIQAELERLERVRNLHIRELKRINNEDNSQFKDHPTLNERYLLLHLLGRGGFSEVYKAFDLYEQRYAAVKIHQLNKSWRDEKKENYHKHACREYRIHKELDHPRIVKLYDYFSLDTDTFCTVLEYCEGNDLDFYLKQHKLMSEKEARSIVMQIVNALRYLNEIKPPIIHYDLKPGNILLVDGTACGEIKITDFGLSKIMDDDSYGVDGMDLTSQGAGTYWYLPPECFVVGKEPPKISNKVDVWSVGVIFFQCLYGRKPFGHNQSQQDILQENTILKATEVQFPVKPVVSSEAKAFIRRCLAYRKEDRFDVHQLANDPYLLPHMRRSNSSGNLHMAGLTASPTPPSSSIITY"}, "DDR2 (human)": {"biological_target": "DDR2 (human) (UniProt Q16832)", "sequence (Q16832 whole entry, looked up)": "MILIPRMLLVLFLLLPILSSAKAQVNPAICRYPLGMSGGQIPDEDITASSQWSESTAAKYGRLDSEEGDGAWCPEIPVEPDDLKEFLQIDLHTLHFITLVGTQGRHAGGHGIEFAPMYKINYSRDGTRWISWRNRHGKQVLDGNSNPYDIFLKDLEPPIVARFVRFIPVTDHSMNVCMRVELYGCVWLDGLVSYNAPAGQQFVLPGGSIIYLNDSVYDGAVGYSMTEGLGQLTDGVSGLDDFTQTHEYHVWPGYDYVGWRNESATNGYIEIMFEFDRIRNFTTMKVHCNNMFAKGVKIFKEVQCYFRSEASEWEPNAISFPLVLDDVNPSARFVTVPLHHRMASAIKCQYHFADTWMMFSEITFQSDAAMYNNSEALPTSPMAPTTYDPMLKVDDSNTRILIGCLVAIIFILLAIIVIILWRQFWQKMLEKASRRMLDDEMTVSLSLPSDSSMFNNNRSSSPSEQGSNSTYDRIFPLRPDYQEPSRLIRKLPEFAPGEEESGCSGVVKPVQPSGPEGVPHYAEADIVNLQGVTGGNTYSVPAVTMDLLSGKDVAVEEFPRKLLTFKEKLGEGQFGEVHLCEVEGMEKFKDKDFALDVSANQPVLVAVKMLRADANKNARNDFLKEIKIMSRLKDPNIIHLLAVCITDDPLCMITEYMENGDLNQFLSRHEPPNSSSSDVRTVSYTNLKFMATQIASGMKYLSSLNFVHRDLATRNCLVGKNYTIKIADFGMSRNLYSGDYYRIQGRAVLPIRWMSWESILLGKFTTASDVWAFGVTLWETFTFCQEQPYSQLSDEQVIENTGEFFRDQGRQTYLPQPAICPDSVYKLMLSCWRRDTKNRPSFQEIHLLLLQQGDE"}, "MAPK7 (human)": {"biological_target": "MAPK7 (human) (UniProt Q13164)"}, "ABL1 (human)": {"biological_target": "ABL1 (human) (UniProt P00519)"}, "[1]": {"tested_on": "OXSR1 (human), O95747 [T185E]", "sequence (O95747 whole entry T185E, looked up)": "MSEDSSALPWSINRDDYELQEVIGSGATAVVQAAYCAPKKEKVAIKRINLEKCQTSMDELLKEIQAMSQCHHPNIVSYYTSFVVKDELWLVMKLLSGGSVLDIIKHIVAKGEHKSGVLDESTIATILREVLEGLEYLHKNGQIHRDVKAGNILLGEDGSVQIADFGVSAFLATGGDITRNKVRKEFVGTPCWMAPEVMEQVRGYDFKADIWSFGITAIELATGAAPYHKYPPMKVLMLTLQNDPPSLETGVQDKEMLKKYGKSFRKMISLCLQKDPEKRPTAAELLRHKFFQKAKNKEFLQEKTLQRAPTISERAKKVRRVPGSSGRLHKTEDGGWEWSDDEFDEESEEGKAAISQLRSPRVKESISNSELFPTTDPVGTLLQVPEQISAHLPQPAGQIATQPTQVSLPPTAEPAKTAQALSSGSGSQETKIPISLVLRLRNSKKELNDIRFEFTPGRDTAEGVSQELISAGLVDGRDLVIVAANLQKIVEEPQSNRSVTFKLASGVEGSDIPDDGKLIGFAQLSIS"}, "ZAP70 (human)": {"biological_target": "ZAP70 (human) (UniProt P43403)", "sequence (P43403 whole entry, looked up)": "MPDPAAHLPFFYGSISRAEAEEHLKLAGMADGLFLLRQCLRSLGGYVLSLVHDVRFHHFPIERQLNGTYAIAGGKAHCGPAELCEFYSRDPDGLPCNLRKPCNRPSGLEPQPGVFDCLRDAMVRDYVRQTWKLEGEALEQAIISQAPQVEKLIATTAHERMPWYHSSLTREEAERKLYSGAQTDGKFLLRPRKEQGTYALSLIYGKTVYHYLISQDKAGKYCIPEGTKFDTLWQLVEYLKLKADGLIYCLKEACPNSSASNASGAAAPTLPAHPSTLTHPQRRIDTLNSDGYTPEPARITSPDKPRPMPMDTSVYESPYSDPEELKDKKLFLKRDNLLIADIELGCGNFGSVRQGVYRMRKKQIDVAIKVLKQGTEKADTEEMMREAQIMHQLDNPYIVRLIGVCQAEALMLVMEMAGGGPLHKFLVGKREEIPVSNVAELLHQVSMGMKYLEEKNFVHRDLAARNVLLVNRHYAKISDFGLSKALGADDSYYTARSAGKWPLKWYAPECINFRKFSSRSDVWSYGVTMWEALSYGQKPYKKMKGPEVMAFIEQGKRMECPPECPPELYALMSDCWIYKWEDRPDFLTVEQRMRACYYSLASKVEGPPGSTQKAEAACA"}, "CSNK1G2 (human)": {"biological_target": "CSNK1G2 (human) (UniProt P78368)", "sequence (P78368 whole entry, looked up)": "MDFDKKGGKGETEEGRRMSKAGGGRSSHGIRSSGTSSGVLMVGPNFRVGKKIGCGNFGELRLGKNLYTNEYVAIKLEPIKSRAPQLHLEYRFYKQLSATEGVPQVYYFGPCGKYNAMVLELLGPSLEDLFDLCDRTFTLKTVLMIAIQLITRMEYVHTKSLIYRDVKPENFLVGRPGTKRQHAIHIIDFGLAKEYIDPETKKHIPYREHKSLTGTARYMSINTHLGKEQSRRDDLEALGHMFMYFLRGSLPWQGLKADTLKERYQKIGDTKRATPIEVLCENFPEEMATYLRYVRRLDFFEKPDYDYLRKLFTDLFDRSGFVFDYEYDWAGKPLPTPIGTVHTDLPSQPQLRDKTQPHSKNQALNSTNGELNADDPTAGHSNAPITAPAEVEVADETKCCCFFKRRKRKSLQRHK"}, "MAP4K5 (human)": {"biological_target": "MAP4K5 (human) (UniProt Q9Y4K4)"}, "PDGFRA (human)": {"biological_target": "PDGFRA (human) (UniProt P16234)", "sequence (P16234 whole entry, looked up)": "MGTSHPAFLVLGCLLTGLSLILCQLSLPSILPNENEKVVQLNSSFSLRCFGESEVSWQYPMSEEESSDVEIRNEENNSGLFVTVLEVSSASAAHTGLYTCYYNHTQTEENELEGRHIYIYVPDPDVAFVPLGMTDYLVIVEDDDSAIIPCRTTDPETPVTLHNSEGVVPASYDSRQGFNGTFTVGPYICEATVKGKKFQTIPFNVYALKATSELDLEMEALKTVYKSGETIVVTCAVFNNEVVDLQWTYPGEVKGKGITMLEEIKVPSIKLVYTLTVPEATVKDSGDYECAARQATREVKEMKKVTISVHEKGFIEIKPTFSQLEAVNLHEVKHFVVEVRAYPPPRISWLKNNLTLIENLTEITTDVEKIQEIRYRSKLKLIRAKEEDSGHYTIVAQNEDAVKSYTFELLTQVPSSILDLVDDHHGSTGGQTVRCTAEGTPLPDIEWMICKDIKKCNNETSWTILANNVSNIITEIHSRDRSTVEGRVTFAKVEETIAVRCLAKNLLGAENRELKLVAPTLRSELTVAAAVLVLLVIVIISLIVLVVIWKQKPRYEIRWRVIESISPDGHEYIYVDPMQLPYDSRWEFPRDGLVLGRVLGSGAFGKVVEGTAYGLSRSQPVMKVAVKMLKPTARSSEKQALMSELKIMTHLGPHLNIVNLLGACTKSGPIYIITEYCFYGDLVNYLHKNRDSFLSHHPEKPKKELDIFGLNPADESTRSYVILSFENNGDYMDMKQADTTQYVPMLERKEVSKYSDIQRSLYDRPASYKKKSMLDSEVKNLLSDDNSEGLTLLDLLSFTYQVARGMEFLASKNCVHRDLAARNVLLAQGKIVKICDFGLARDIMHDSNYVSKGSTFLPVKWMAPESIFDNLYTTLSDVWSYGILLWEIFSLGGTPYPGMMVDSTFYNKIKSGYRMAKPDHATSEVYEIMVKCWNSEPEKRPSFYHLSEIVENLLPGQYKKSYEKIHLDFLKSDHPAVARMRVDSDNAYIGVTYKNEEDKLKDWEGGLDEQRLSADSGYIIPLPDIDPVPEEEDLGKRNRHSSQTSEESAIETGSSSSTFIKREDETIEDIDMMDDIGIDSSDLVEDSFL"}, "SIK3 (human)": {"biological_target": "SIK3 (human) (UniProt Q9Y2K2)"}, "[2]": {"biological_target": "PRKAA1 PRKAB2 PRKAG1 (human) (UniProt O43741+Q13131+P54619)"}, "TTBK1 (human)": {"biological_target": "TTBK1 (human) (UniProt Q5TCY1)"}, "STK24 (human)": {"biological_target": "STK24 (human) (UniProt Q9Y6E0)", "sequence (Q9Y6E0 whole entry, looked up)": "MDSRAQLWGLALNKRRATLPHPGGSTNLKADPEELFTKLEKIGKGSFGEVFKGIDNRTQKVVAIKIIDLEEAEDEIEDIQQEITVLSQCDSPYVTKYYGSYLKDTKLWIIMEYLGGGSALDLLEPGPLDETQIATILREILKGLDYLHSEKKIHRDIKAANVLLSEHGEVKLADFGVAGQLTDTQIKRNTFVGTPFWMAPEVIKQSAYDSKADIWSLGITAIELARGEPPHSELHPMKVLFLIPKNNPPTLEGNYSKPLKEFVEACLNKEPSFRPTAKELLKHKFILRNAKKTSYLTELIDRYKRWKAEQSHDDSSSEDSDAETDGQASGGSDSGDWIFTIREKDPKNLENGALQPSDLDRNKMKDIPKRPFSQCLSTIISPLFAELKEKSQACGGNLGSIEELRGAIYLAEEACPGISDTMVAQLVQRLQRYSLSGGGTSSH"}, "STK16 (human)": {"biological_target": "STK16 (human) (UniProt O75716)", "sequence (O75716 whole entry, looked up)": "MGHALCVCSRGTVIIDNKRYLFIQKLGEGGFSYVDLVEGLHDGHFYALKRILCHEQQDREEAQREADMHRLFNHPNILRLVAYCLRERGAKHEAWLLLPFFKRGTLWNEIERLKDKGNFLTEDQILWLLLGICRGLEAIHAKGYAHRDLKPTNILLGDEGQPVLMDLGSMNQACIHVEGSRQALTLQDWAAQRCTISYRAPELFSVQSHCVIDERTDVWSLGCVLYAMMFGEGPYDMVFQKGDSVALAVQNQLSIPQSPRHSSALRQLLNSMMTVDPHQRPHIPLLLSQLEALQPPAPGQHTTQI"}, "WNK1 (human)": {"biological_target": "WNK1 (human) (UniProt Q9H4A3)"}, "PTK6 (human)": {"biological_target": "PTK6 (human) (UniProt Q13882)"}, "[3]": {"tested_on": "TGFBR1 (human), P36897 [T204D]"}, "ULK1 (human)": {"biological_target": "ULK1 (human) (UniProt O75385)"}, "ULK2 (human)": {"biological_target": "ULK2 (human) (UniProt Q8IYT8)"}}}
{"molecule": "COc1cc(C(=O)N2CCOCC2)c(F)cc1Nc1ncc(C(F)(F)F)c(NC2CC2)n1", "values": [{"measurement": "residual activity", "setting": "IRAK1 (human); compound 1.0 µM", "result": 98, "unit": "%"}, {"measurement": "residual activity", "setting": "IRAK1 (human); compound 10.0 µM", "result": 94, "unit": "%"}, {"measurement": "residual activity", "setting": "EIF2AK3 (human); compound 1.0 µM", "result": 87, "unit": "%"}, {"measurement": "residual activity", "setting": "EIF2AK3 (human); compound 10.0 µM", "result": 82, "unit": "%"}, {"measurement": "residual activity", "setting": "STK33 (human); compound 1.0 µM", "result": 47, "unit": "%"}, {"measurement": "residual activity", "setting": "STK33 (human); compound 10.0 µM", "result": 30, "unit": "%"}, {"measurement": "residual activity", "setting": "CDK9 CCNT1 (human); compound 1.0 µM", "result": 87, "unit": "%"}, {"measurement": "residual activity", "setting": "CDK9 CCNT1 (human); compound 10.0 µM", "result": 90, "unit": "%"}, {"measurement": "residual activity", "setting": "MAP4K3 (human); compound 1.0 µM", "result": 76, "unit": "%"}, {"measurement": "residual activity", "setting": "MAP4K3 (human); compound 10.0 µM", "result": 36, "unit": "%"}, {"measurement": "residual activity", "setting": "TTBK2 (human); compound 1.0 µM", "result": 91, "unit": "%"}, {"measurement": "residual activity", "setting": "TTBK2 (human); compound 10.0 µM", "result": 97, "unit": "%"}, {"measurement": "residual activity", "setting": "TESK1 (human); compound 1.0 µM", "result": 102, "unit": "%"}, {"measurement": "residual activity", "setting": "TESK1 (human); compound 10.0 µM", "result": 118, "unit": "%"}, {"measurement": "residual activity", "setting": "TEK (human); compound 1.0 µM", "result": 85, "unit": "%"}, {"measurement": "residual activity", "setting": "TEK (human); compound 10.0 µM", "result": 91, "unit": "%"}, {"measurement": "residual activity", "setting": "MYLK (human); compound 1.0 µM", "result": 44, "unit": "%"}, {"measurement": "residual activity", "setting": "MYLK (human); compound 10.0 µM", "result": 8, "unit": "%"}, {"measurement": "residual activity", "setting": "SIK2 (human); compound 1.0 µM", "result": 84, "unit": "%"}, {"measurement": "residual activity", "setting": "SIK2 (human); compound 10.0 µM", "result": 34, "unit": "%"}, {"measurement": "residual activity", "setting": "TSSK1B (human); compound 1.0 µM", "result": 31, "unit": "%"}, {"measurement": "residual activity", "setting": "TSSK1B (human); compound 10.0 µM", "result": 7, "unit": "%"}, {"measurement": "residual activity", "setting": "TLK1 (human); compound 1.0 µM", "result": 106, "unit": "%"}, {"measurement": "residual activity", "setting": "TLK1 (human); compound 10.0 µM", "result": 96, "unit": "%"}, {"measurement": "residual activity", "setting": "DDR2 (human); compound 1.0 µM", "result": 105, "unit": "%"}, {"measurement": "residual activity", "setting": "DDR2 (human); compound 10.0 µM", "result": 100, "unit": "%"}, {"measurement": "residual activity", "setting": "MAPK7 (human); compound 1.0 µM", "result": 66, "unit": "%"}, {"measurement": "residual activity", "setting": "MAPK7 (human); compound 10.0 µM", "result": 42, "unit": "%"}, {"measurement": "residual activity", "setting": "ABL1 (human); compound 1.0 µM", "result": 106, "unit": "%"}, {"measurement": "residual activity", "setting": "ABL1 (human); compound 10.0 µM", "result": 97, "unit": "%"}, {"measurement": "residual activity", "setting": "[1]; compound 1.0 µM", "result": 95, "unit": "%"}, {"measurement": "residual activity", "setting": "[1]; compound 10.0 µM", "result": 51, "unit": "%"}, {"measurement": "residual activity", "setting": "ZAP70 (human); compound 1.0 µM", "result": 88, "unit": "%"}, {"measurement": "residual activity", "setting": "ZAP70 (human); compound 10.0 µM", "result": 86, "unit": "%"}, {"measurement": "residual activity", "setting": "CSNK1G2 (human); compound 1.0 µM", "result": 90, "unit": "%"}, {"measurement": "residual activity", "setting": "CSNK1G2 (human); compound 10.0 µM", "result": 89, "unit": "%"}, {"measurement": "residual activity", "setting": "MAP4K5 (human); compound 1.0 µM", "result": 107, "unit": "%"}, {"measurement": "residual activity", "setting": "MAP4K5 (human); compound 10.0 µM", "result": 91, "unit": "%"}, {"measurement": "residual activity", "setting": "PDGFRA (human); compound 1.0 µM", "result": 81, "unit": "%"}, {"measurement": "residual activity", "setting": "PDGFRA (human); compound 10.0 µM", "result": 76, "unit": "%"}, {"measurement": "residual activity", "setting": "SIK3 (human); compound 1.0 µM", "result": 95, "unit": "%"}, {"measurement": "residual activity", "setting": "SIK3 (human); compound 10.0 µM", "result": 93, "unit": "%"}, {"measurement": "residual activity", "setting": "[2]; compound 1.0 µM", "result": 82, "unit": "%"}, {"measurement": "residual activity", "setting": "[2]; compound 10.0 µM", "result": 44, "unit": "%"}, {"measurement": "residual activity", "setting": "TTBK1 (human); compound 1.0 µM", "result": 96, "unit": "%"}, {"measurement": "residual activity", "setting": "TTBK1 (human); compound 10.0 µM", "result": 93, "unit": "%"}, {"measurement": "residual activity", "setting": "STK24 (human); compound 1.0 µM", "result": 96, "unit": "%"}, {"measurement": "residual activity", "setting": "STK24 (human); compound 10.0 µM", "result": 85, "unit": "%"}, {"measurement": "residual activity", "setting": "STK16 (human); compound 1.0 µM", "result": 115, "unit": "%"}, {"measurement": "residual activity", "setting": "STK16 (human); compound 10.0 µM", "result": 101, "unit": "%"}, {"measurement": "residual activity", "setting": "WNK1 (human); compound 1.0 µM", "result": 97, "unit": "%"}, {"measurement": "residual activity", "setting": "WNK1 (human); compound 10.0 µM", "result": 106, "unit": "%"}, {"measurement": "residual activity", "setting": "PTK6 (human); compound 1.0 µM", "result": 53, "unit": "%"}, {"measurement": "residual activity", "setting": "PTK6 (human); compound 10.0 µM", "result": 22, "unit": "%"}, {"measurement": "residual activity", "setting": "[3]; compound 1.0 µM", "result": 99, "unit": "%"}, {"measurement": "residual activity", "setting": "[3]; compound 10.0 µM", "result": 103, "unit": "%"}, {"measurement": "residual activity", "setting": "ULK1 (human); compound 1.0 µM", "result": 98, "unit": "%"}, {"measurement": "residual activity", "setting": "ULK1 (human); compound 10.0 µM", "result": 56, "unit": "%"}, {"measurement": "residual activity", "setting": "ULK2 (human); compound 1.0 µM", "result": 88, "unit": "%"}, {"measurement": "residual activity", "setting": "ULK2 (human); compound 10.0 µM", "result": 70, "unit": "%"}]}
